Results from patent US20240207236A1, “COMPOUND FOR PREVENTING OR TREATING DIABETES” (ONCOCROSS CO., LTD., priority 2021, published 2024).

Columns and labels:
Assay type in all cases: in vivo, mice (C57BL/6)
[1] = test system: animal model of insulin-resistant diabetes; test: Histopathological change of liver, kidney and pancreas (H&E); conditions: for Kidney Medullar apoptosis / Kidney Medullar mineralization / Kidney NHL / Kidney bowman's capsule hyperplasia / Kidney pappillary mineralization / Liver Apoptosis / Liver Cytoplasmic glycogen / Liver Eosinophlic focus of cellular alteration / Liver Mononuclear cell infiltrate / Liver NHL / Pancrease Apoptosis / Pancrease NHL / Pancrease islet degeneration / Pancrease islet hypertrophy / Pancrease islet, mononuclear cell infillitrate: count in group of 10 animals
Procedure: (§1) STZ (Sigma-aldrich, S0130, 40 mg/kg b.w., in 0.1 M citrate buffer pH 4.5) was intraperitoneally administered to 9-week-old male mice (C57BL/6) once/1 day for 5 days to perform a first disease induction. After 7 weeks of the first induction, a second induction was performed using the same method as the first induction. For 5 days of an STZ administration period for the first induction, 10% sucrose was administered as drinking water. In addition, after 14 days of the second administration, blood sugar was confirmed to confirm the induction rate, and the induced animals were separated into groups. Experimental substances (R)-4-{(R)-1-[7-(3,4,5-trimethoxy-phenyl)-[1,6] naphthyridine-5-yloxy]-ethyl}pyrrolidine-2-one (BI-1002494) and cromolyn (OC-101) were administered orally into the stomach at 10 mL/kg using an oral administration syringe (sonde) before 16:00 daily for 12 weeks at a frequency of 7 days/week at doses shown in Table 1 below, respectively, and dexamethasone was orally administered as a positive control substance.
At the end of the observation period, the mice in each group of Example 1 were confirmed to be dead, and the liver, kidney, and pancreas were extracted and fixed with 10% neutral buffered formalin (NBF) in at least 20 times the tissue volume. The fixed tissue was sectioned to a thickness of approximately 4 mm and then produced into a paraffin block through general tissue processing and embedding processes. Thereafter, the tissue was sectioned to a thickness of 4 μm using a rotary microtome, and then H&E staining was performed, and histopathological changes were observed.

[2] = test system: animal model of insulin-resistant diabetes; test: Blood sugar, tail vein blood, blood sugar meter, 4 h fasting; set-up: blood sugar, Mean: unit not given here
Procedure: as §1
Before disease induction, excluding week 9 of administration of experimental substances to mice in each group of Example 1 above, after 2 weeks after the first induction (based on a first administration date), and after 6 weeks and 2 weeks of the second induction (based on the first administration date), blood was collected from the tail vein and blood sugar was measured using a blood sugar meter (Accu-Check, Roche), and fasting was performed for 4 hours from 9:30 a.m. to 1:30 p.m.

[3] = Drinking water intake of mice in STZ-induced insulin-resistant diabetes model; set-up: unit not given here
Procedure: as §1

[4] = test system: animal model of insulin-resistant diabetes; test: Blood indoxyl sulfate by LC MS/MS; conditions: 12 weeks
Procedure: as §1
After the observation period for mice of each group in Example 1 was terminated, all surviving animals were fasted in the same manner as when measuring blood sugar, and then anesthetized by inhaling isoflurane, and blood was collected from the abdominal vena cava through laparotomy. After the blood collection was completed, the veins and arteries were cut under anesthesia and exsanguinated. The collected blood was left at room temperature for 30 minutes or more and then centrifuged at 3,000 rpm for 20 minutes. Thereafter, glucose, blood urea nitrogen (BUN), and creatinine were analyzed using an automated blood biochemistry analyzer (Hitachi 3100, Hitachi Co. Ltd., Japan). Indoxyl sulfate (a substance that was mainly produced in the intestines to cause kidney damage, and a substance that caused end-stage renal failure by advancing kidney function damage in patients with renal failure during hemodialysis) was analyzed using LC MS/MS. In addition, blood insulin was analyzed according to a method represented by a commercial Mouse Insulin ELISA KIT (#AKRIN-011T, Sibayagi Co. Ltd., Japan).

[5] = administered groups 12.5-50 mg/kg, Table 8 and FIG. 2

With `COc1cc(-c2cc3ncccc3c(O[C@H](C)[C@H]3CNC(=O)C3)n2)cc(OC)c1OC` [BI-1002494, (R)-4-{(R)-1-[7-(3,4,5-trimethoxy-phenyl)-[1,6]naphthyridine-5-yloxy]-ethyl}pyrrolidine-2-one] the “Kidney Medullar apoptosis” value ([1]; 12.5 mg/kg (G4)) was 3, the “Kidney Medullar mineralization” value ([1]; 12.5 mg/kg (G4)) was 0 and the “Kidney NHL” value ([1]; 12.5 mg/kg (G4)) was 7. The “Kidney bowman's capsule hyperplasia” value ([1]; 12.5 mg/kg (G4)) was 0, the Kidney pappillary mineralization ([1]; 12.5 mg/kg (G4)) was 0 and the “Liver Apoptosis” value ([1]; 12.5 mg/kg (G4)) was 2. The “Liver Cytoplasmic glycogen” value ([1]; 12.5 mg/kg (G4)) was 1, the “Liver Eosinophlic focus of cellular alteration” value (shortened to “Liver Eosinophlic focus”) ([1]; 12.5 mg/kg (G4)) was 0 and the “Liver Mononuclear cell infiltrate” value ([1]; 12.5 mg/kg (G4)) was 1. For the same compound, the “Liver NHL” value ([1]; 12.5 mg/kg (G4)) was 7, the “Pancrease Apoptosis” value ([1]; 12.5 mg/kg (G4)) was 1 and the “Pancrease NHL” value ([1]; 12.5 mg/kg (G4)) was 5. The Pancrease islet degeneration ([1]; 12.5 mg/kg (G4)) was 2, the Pancrease islet hypertrophy ([1]; 12.5 mg/kg (G4)) was 1 and the “Pancrease islet, mononuclear cell infillitrate” value ([1]; 12.5 mg/kg (G4)) was 1. The “Kidney Medullar apoptosis” value ([1]; 25 mg/kg (G5)) was 2, the “Kidney Medullar mineralization” value ([1]; 25 mg/kg (G5)) was 1 and the “Kidney NHL” value ([1]; 25 mg/kg (G5)) was 7. The “Kidney bowman's capsule hyperplasia” value ([1]; 25 mg/kg (G5)) was 0, the Kidney pappillary mineralization ([1]; 25 mg/kg (G5)) was 0 and the “Liver Apoptosis” value ([1]; 25 mg/kg (G5)) was 3. For the same compound, the “Liver Cytoplasmic glycogen” value ([1]; 25 mg/kg (G5)) was 0, the “Liver Eosinophlic focus” value ([1]; 25 mg/kg (G5)) was 0 and the “Liver Mononuclear cell infiltrate” value ([1]; 25 mg/kg (G5)) was 2. For the same compound, the “Liver NHL” value ([1]; 25 mg/kg (G5)) was 7, the “Pancrease Apoptosis” value ([1]; 25 mg/kg (G5)) was 0 and the “Pancrease NHL” value ([1]; 25 mg/kg (G5)) was 8. For the same compound, the Pancrease islet degeneration ([1]; 25 mg/kg (G5)) was 1, the Pancrease islet hypertrophy ([1]; 25 mg/kg (G5)) was 1 and the “Pancrease islet, mononuclear cell infillitrate” value ([1]; 25 mg/kg (G5)) was 0. For the same compound, the “Kidney Medullar apoptosis” value ([1]; 50 mg/kg (G6, G7)) was 1, the “Kidney Medullar mineralization” value ([1]; 50 mg/kg (G6, G7)) was 2 and the “Kidney NHL” value ([1]; 50 mg/kg (G6, G7)) was 7. For the same compound, the “Kidney bowman's capsule hyperplasia” value ([1]; 50 mg/kg (G6, G7)) was 0, the Kidney pappillary mineralization ([1]; 50 mg/kg (G6, G7)) was 0 and the “Liver Apoptosis” value ([1]; 50 mg/kg (G6, G7)) was 2. The “Liver Cytoplasmic glycogen” value ([1]; 50 mg/kg (G6, G7)) was 0, the “Liver Eosinophlic focus” value ([1]; 50 mg/kg (G6, G7)) was 0 and the “Liver Mononuclear cell infiltrate” value ([1]; 50 mg/kg (G6, G7)) was 1. The “Liver NHL” value ([1]; 50 mg/kg (G6, G7)) was 8, the “Pancrease Apoptosis” value ([1]; 50 mg/kg (G6, G7)) was 0 and the “Pancrease NHL” value ([1]; 50 mg/kg (G6, G7)) was 7. For the same compound, the Pancrease islet degeneration ([1]; 50 mg/kg (G6, G7)) was 1, the Pancrease islet hypertrophy ([1]; 50 mg/kg (G6, G7)) was 2 and the “Pancrease islet, mononuclear cell infillitrate” value ([1]; 50 mg/kg (G6, G7)) was 0. The “cytoplasmic glycogen in the liver” value [1, 5] was “reduced in the liver”, the “medullar apoptosis in the kidney” value [1, 5] was “reduced in the kidney in a dose-dependent manner” and the “blood sugar, Mean” value ([2]; 12.5 mg/kg/day oral, value column 2 of 6, head prints only weeks 0, 4, 8, 10) was 319.5. The “blood sugar, Mean” value ([2]; 12.5 mg/kg/day oral, week 0) was 291.1, the “blood sugar, Mean” value ([2]; 25 mg/kg/day oral, value column 2 of 6, head prints only weeks 0, 4, 8, 10) was 310.1 and the “blood sugar, Mean” value ([2]; 25 mg/kg/day oral, week 0) was 301.2. For the same compound, the “blood sugar, Mean” value ([2]; 50 mg/kg/day oral, value column 2 of 6, head prints only weeks 0, 4, 8, 10) was 264.5, the “blood sugar, Mean” value ([2]; 50 mg/kg/day oral, week 0) was 303.7 and the “blood sugar compared to the positive control group” value ([2]; administered group, dose not specified) was “decreased significantly”. The “blood sugar, summary” value ([2]; after induction of diabetic disease, 12.5-50 mg/kg) was “decreased in a dose-dependent manner”, the “drinking water intake, Mean” value ([3]; 12.5 mg/kg/day oral, week 1) was 7.91 and the “drinking water intake, Mean” value ([3]; 12.5 mg/kg/day oral, week 2) was 7.41. For the same compound, the “drinking water intake, Mean” value ([3]; 12.5 mg/kg/day oral, week 4) was 7.08, the “drinking water intake, Mean” value ([3]; 12.5 mg/kg/day oral, week 5) was 7.16 and the “drinking water intake, Mean” value ([3]; 12.5 mg/kg/day oral, week 6) was 7.34. For the same compound, the “drinking water intake, Mean” value ([3]; 12.5 mg/kg/day oral, week 7) was 7.24, the “drinking water intake, Mean” value ([3]; 12.5 mg/kg/day oral, week 8) was 6.99 and the “drinking water intake, Mean” value ([3]; 12.5 mg/kg/day oral, week 9) was 7.40. For the same compound, the “drinking water intake, Mean” value ([3]; 25 mg/kg/day oral, week 0) was 7.07, the “drinking water intake, Mean” value ([3]; 25 mg/kg/day oral, week 1) was 7.62 and the “drinking water intake, Mean” value ([3]; 25 mg/kg/day oral, week 3) was 7.38. For the same compound, the “drinking water intake, Mean” value ([3]; 25 mg/kg/day oral, week 4) was 6.73, the “drinking water intake, Mean” value ([3]; 25 mg/kg/day oral, week 5) was 7.19 and the “drinking water intake, Mean” value ([3]; 25 mg/kg/day oral, week 6) was 7.34. The “drinking water intake, Mean” value ([3]; 25 mg/kg/day oral, week 7) was 7.69, the “drinking water intake, Mean” value ([3]; 25 mg/kg/day oral, week 8) was 7.43 and the “drinking water intake, Mean” value ([3]; 25 mg/kg/day oral, week 9) was 7.54. The “drinking water intake, Mean” value ([3]; 25 mg/kg/day oral, week 10) was 7.15, the “drinking water intake, Mean” value ([3]; 50 mg/kg/day oral, week 0) was 7.27 and the “drinking water intake, Mean” value ([3]; 50 mg/kg/day oral, week 1) was 7.04. For the same compound, the “drinking water intake, Mean” value ([3]; 50 mg/kg/day oral, week 3) was 6.95, the “drinking water intake, Mean” value ([3]; 50 mg/kg/day oral, week 4) was 7.13 and the “drinking water intake, Mean” value ([3]; 50 mg/kg/day oral, week 5) was 6.48. For the same compound, the “drinking water intake, Mean” value ([3]; 50 mg/kg/day oral, week 9) was 6.51, the “drinking water intake, Mean” value ([3]; 50 mg/kg/day oral, week 10) was 6.22 and the “Indoxyl sulfate, Mean” value ([4]; 12.5 mg/kg/day oral) was 2.2 µg/mL. For the same compound, the “Indoxyl sulfate, Mean” value ([4]; 25 mg/kg/day oral) was 2.2 µg/mL and the “Indoxyl sulfate, Mean” value ([4]; 50 mg/kg/day oral) was 1.9 µg/mL.
